This test addresses T1, Diacylglycerol O-acyltransferase 2 (Homo sapiens, UniProt Q96PD7).
T1 sequence (Q96PD7 whole entry): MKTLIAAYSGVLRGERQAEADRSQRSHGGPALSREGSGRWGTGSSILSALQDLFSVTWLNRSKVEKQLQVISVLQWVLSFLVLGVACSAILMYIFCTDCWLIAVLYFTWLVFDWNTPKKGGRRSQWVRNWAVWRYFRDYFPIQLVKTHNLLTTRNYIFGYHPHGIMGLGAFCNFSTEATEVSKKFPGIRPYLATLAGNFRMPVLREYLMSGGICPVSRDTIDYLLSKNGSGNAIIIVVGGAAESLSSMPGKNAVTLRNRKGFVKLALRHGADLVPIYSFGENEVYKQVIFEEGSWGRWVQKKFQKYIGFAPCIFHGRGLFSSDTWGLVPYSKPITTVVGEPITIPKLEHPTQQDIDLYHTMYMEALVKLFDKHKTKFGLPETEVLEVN
The experiment in a line: DGAT2 enzymatic activity assay. The procedure: DGAT2 activity was determined by measuring the amount of enzymatic product 13Ci8-triolein (13C-l,2,3-Tri(cis-9-octadecenoyl)glycerol) using the membrane prep mentioned above. The assay was carried out in ABgene 384-well assay plates in a final volume of 25 pL at rt. The assay mixture contained the following: assay buffer (100 mM Tris Cl, pH 7.0, 20 mM MgCl2, 5% ethanol), 25 pM of di olein, 5 μM of 13C oleoyl-CoA and 8 ng/pL of DGAT2 membrane.

Molecules are shown by their SMILES. Several values for one entry are separate records, joined by “and”; a condition that tells them apart may be missing. Equal values may be shown once.

The IC50 is the concentration that gives 50% inhibition. The low end stands for greater potency in that assay, the high end for weaker potency in that assay. In turn, `CC(C)n1c(=O)n(-c2cccc(OC(F)(F)C(F)(F)F)c2)c2ccc(C(=O)NC3(C)CS(=O)(=O)C3)cc21` [WO2022076495, EXAMPLE 7] came in with an IC50 of 16 nM.

Regarding `CC(C)n1c(=O)n(-c2cccc(OC(F)F)c2)c2ccc(C(=O)NC3(C)CS(=O)(=O)C3)cc21` [WO2022076495, EXAMPLE 12], the IC50 was 88 nM and 122 nM.

In turn, `CC(C)n1c(=O)n(-c2cc(OCC(F)F)ncc2F)c2ccc(C(=O)NC3(C)CCS(=O)(=O)CC3)cc21` [WO2022076495, EXAMPLE 15] yielded an IC50 of 6.7 nM.

For the molecule `CCOc1cc(-n2c(=O)n(C(C)C)c3cc(C(=O)NC4(C)CS(=O)(=O)C4)ccc32)c(F)cn1` [WO2022076495, EXAMPLE 16], the IC50 amounted to 31 nM.

Consider `CC(C)n1c(=O)n(-c2cccc(OC(F)F)c2)c2cc(F)c(C(=O)NC3(C)CS(=O)(=O)C3)cc21` [WO2022076495, EXAMPLE 24], for which the IC50 was 66 nM and 54 nM.

Molecule `CC(C)n1c(=O)n(-c2cccc(OC(F)F)c2)c2cc(F)c(C(=O)NC(C)C(C)(C)O)cc21` (configuration not stated) [WO2022076495, EXAMPLE 27] gave an IC50 of over 10000 nM.

As to `CC(C)n1c(=O)n(-c2cccc(OC(F)F)c2)c2cc(F)c(C(=O)N[C@H]3CCC[C@@H]3O)cc21` [WO2022076495, EXAMPLE 28], the IC50 amounted to 779 nM.

As to `CC(C)n1c(=O)n(-c2cccc(OC(F)F)c2)c2cc(F)c(C(=O)N[C@H]3CCOC[C@@H]3O)cc21` [WO2022076495, EXAMPLE 29], the IC50 is 1260 nM.

Regarding `CC(C)n1c(=O)n(-c2cccc(OC(F)F)c2)c2cc(F)c(C(=O)N[C@H]3CCCC(F)(F)[C@H]3O)cc21` [WO2022076495, EXAMPLE 30], it took 31 nM to reach half-maximal inhibition (IC50).

`CC(C)n1c(=O)n(-c2cccc(OC(F)F)c2)c2cc(F)c(C(=O)N[C@@H]3CCCC[C@H]3O)cc21` [WO2022076495, EXAMPLE 31]: half-maximal inhibition (IC50) required 106 nM.

Molecule `CC(C)n1c(=O)n(-c2cccc(OC(F)F)c2)c2cc(F)c(C(=O)N[C@H]3CCCC[C@@H]3O)cc21` [WO2022076495, EXAMPLE 35] had an IC50 of 71 nM.

`CC1(NC(=O)c2cc3c(cc2F)n(-c2cccc(OC(F)F)c2)c(=O)n3C2CCOCC2)CS(=O)(=O)C1` [WO2022076495, EXAMPLE 36] returned an IC50 of 19 nM.

Regarding `CCn1c(=O)n(-c2cccc(OC(F)F)c2)c2cc(F)c(C(=O)NC3(C)CS(=O)(=O)C3)cc21` [WO2022076495, EXAMPLE 40], the midpoint of inhibition, the IC50, lay at 194 nM.

In turn, `CC1(NC(=O)c2cc3c(cc2F)n(-c2cccc(OC(F)F)c2)c(=O)n3CC(F)(F)F)CS(=O)(=O)C1` [WO2022076495, EXAMPLE 43] registered an IC50 of 202 nM.

In the case of `C[C@H](C(F)F)n1c(=O)n(-c2cccc(OC(F)F)c2)c2ccc(C(=O)NC3(C)CCS(=O)(=O)CC3)cc21` [WO2022076495, EXAMPLE 45a], the IC50 worked out at 12 nM.

Turning to `C[C@@H](C(F)F)n1c(=O)n(-c2cccc(OC(F)F)c2)c2ccc(C(=O)NC3(C)CCS(=O)(=O)CC3)cc21` [WO2022076495, EXAMPLE 45b], the IC50 came to 101 nM.

For the molecule `CC[C@@H](C)n1c(=O)n(-c2cccc(OC(F)F)c2)c2ccc(C(=O)NC3(C)CS(=O)(=O)C3)cc21` [WO2022076495, EXAMPLE 46a], the IC50 was found to be 81 nM.

Turning to `CC[C@H](C)n1c(=O)n(-c2cccc(OC(F)F)c2)c2ccc(C(=O)NC3(C)CS(=O)(=O)C3)cc21` [WO2022076495, EXAMPLE 46b], inhibition was half-maximal at 92 nM (IC50).

For `CC(C)n1c(=O)n(-c2cccc(OC(F)F)c2)c2ccc(C(=O)NCC3(O)CCOC3)cc21` (configuration not stated) [WO2022076495, EXAMPLE 62], the IC50 is over 9990 nM.

Molecule `CC(C)(O)Cn1c(=O)n(-c2cccc(OC(F)F)c2)c2ccc(C(=O)NC3(C)CS(=O)(=O)C3)cc21` [WO2022076495, EXAMPLE 64] displayed an IC50 of 37 nM.

The molecule `CC(n1c(=O)n(-c2cc(OC(F)F)ccc2F)c2ccc(C(=O)NC3(C)CS(=O)(=O)C3)cc21)C(C)(C)O` (configuration not stated) [WO2022076495, EXAMPLE 65] showed an IC50 of 0.7 nM.

The molecule `C[C@H](n1c(=O)n(-c2cc(OC(F)F)ccc2F)c2ccc(C(=O)NC3(C)CCS(=O)(=O)CC3)cc21)C(C)(C)O` [WO2022076495, EXAMPLE 66a] yielded an IC50 of 1.1 nM.
